From ChEMBL document CHEMBL4673355, “Thiacalixarene based quaternary ammonium salts as promising antibacterial agents” (Bioorg Med Chem, 2021)
Values after ≈ are worked out from the molar mass of the structure shown. Values joined by “and” are separate entries in the source; they are usually repeats but may differ in a detail not shown here. Equal entries are not always repeated. Blank lines part the entries; values can stand above or below the molecule they belong to.

What was measured:
Enterococcus faecalis [1] = experiment: Antibacterial activity against Enterococcus faecalis ATCC 29212 by CLSI broth microdilution method; format: functional
Staphylococcus aureus [2] = experiment: Bactericidal activity against Staphylococcus aureus ATCC 29213; format: functional
Staphylococcus aureus [3] = experiment: Antibacterial activity against Staphylococcus aureus ATCC 29223 by CLSI broth microdilution method; format: functional
Staphylococcus aureus [4] = experiment: Bactericidal activity against Staphylococcus aureus ATCC 29223; format: functional
Staphylococcus aureus [5] = experiment: Antibacterial activity against Staphylococcus aureus ATCC 29213 by CLSI broth microdilution method; format: functional
Pseudomonas aeruginosa [6] = experiment: Antibacterial activity against Pseudomonas aeruginosa ATCC 27853 by CLSI broth microdilution method; format: functional
Escherichia coli [7] = experiment: Bactericidal activity against Escherichia coli ATCC 25922; format: functional
Enterococcus faecalis [8] = experiment: Bactericidal activity against Enterococcus faecalis ATCC 29212; format: functional
Escherichia coli [9] = experiment: Antibacterial activity against Escherichia coli ATCC 25922 by CLSI broth microdilution method; format: functional
Staphylococcus aureus [10] = experiment: Antibacterial activity against methicillin- resistant Staphylococcus aureus 967 clinical isolate assessed as reduction in bacterial growth incubated for 24 hrs by CLSI broth microdilution method; format: functional
Klebsiella sp. [11] = experiment: Antibacterial activity against […] resistant Klebsiella sp. clinical isolate 11 assessed as reduction in bacterial growth incubated for 24 hrs by CLSI broth microdilution method; format: functional
[12] = tested on: Staphylococcus haemolyticus; experiment: Antibacterial activity against methicillin- resistant Staphylococcus haemolyticus 837 assessed as reduction in bacterial growth incubated for 24 hrs by CLSI broth microdilution method; format: functional
[13] = Selectivity index, ratio of CC50 for human HSF cells to MIC for Klebsiella pneumoniae ATCC 1813; format: toxicity; details: for selectivity ratio: HSF cells
Proteus sp. = experiment: Antibacterial activity against […] resistant Proteus sp. clinical isolate 17 assessed as reduction in bacterial growth incubated for 24 hrs by CLSI broth microdilution method; format: functional; details: Proteus sp. (in: enterobacteria)
Acinetobacter [14] = experiment: Antibacterial activity against […] resistant Acinetobacter spp. clinical isolate 1 assessed as reduction in bacterial growth incubated for 24 hrs by CLSI broth microdilution method; format: functional
Escherichia coli [15] = experiment: Bactericidal activity against Escherichia coli ATCC 25922 assessed as reduction in bacterial growth incubated for 24 hrs followed by replating on MH broth and further incubated for 24 hrs by CLSI broth microdilution method; format: functional
[16] = tested on: Staphylococcus epidermidis; experiment: Antibacterial activity against Staphylococcus epidermidis assessed as reduction in bacterial growth incubated for 24 hrs by CLSI broth microdilution method; format: functional
Pseudomonas aeruginosa [17] = experiment: Antibacterial activity against Pseudomonas aeruginosa ATCC 27853 assessed as reduction in bacterial growth incubated for 24 hrs by CLSI broth microdilution method; format: functional
Pseudomonas = experiment: Antibacterial activity against methicillin- resistant Pseudomonas spp. clinical isolate 6 assessed as reduction in bacterial growth incubated for 24 hrs by CLSI broth microdilution method; format: functional
Staphylococcus aureus [18] = experiment: Antibacterial activity against methicillin- resistant Staphylococcus aureus 25 clinical isolate assessed as reduction in bacterial growth incubated for 24 hrs by CLSI broth microdilution method; format: functional
Staphylococcus aureus [19] = experiment: Bactericidal activity against Staphylococcus aureus ATCC 29213 assessed as reduction in bacterial growth incubated for 24 hrs followed by replating on MH broth and further incubated for 24 hrs by CLSI broth microdilution method; format: functional; details: Staphylococcus aureus, ATCC 29213; time 48 hrs; read-out: MBC
Klebsiella pneumoniae [20] = experiment: Bactericidal activity against Klebsiella pneumoniae ATCC 1813 assessed as reduction in bacterial growth incubated for 24 hrs followed by replating on MH broth and further incubated for 24 hrs by CLSI broth microdilution method; format: functional
Klebsiella sp. [21] = experiment: Antibacterial activity against […] resistant Klebsiella sp. clinical isolate 12 assessed as reduction in bacterial growth incubated for 24 hrs by CLSI broth microdilution method; format: functional
Bacillus subtilis [22] = experiment: Antibacterial activity against Bacillus subtilis 168 assessed as reduction in bacterial growth incubated for 24 hrs by CLSI broth microdilution method; format: functional
[23] = Antibacterial activity against […] resistant Moraxella sp.764 clinical isolate assessed as reduction in bacterial growth incubated for 24 hrs by CLSI broth microdilution method; format: functional; details: Moraxella catarrhalis
Acinetobacter [24] = experiment: Antibacterial activity against […] resistant Acinetobacter spp. clinical isolate 3 assessed as reduction in bacterial growth incubated for 24 hrs by CLSI broth microdilution method; format: functional
[25] = Selectivity index, ratio of CC50 for human HSF cells to MIC for Pseudomonas aeruginosa ATCC 27853; format: toxicity; details: for selectivity ratio: HSF cells
Bacillus subtilis [26] = experiment: Bactericidal activity against Bacillus subtilis 168 assessed as reduction in bacterial growth incubated for 24 hrs followed by replating on MH broth and further incubated for 24 hrs by CLSI broth microdilution method; format: functional; details: Bacillus subtilis, 168, 24 h
Staphylococcus aureus [27] = experiment: Antibacterial activity against methicillin- resistant Staphylococcus aureus 2020 clinical isolate assessed as reduction in bacterial growth incubated for 24 hrs by CLSI broth microdilution method; format: functional
[28] = Antibacterial activity against […] resistant Moraxella sp.829 clinical isolate assessed as reduction in bacterial growth incubated for 24 hrs by CLSI broth microdilution method; format: functional; details: Moraxella catarrhalis
[29] = Antibacterial activity against […] resistant Moraxella sp.765 clinical isolate assessed as reduction in bacterial growth incubated for 24 hrs by CLSI broth microdilution method; format: functional; details: Moraxella catarrhalis
Acinetobacter [30] = experiment: Antibacterial activity against […] resistant Acinetobacter spp. clinical isolate 5 assessed as reduction in bacterial growth incubated for 24 hrs by CLSI broth microdilution method; format: functional
Staphylococcus aureus [31] = experiment: Antibacterial activity against methicillin- resistant Staphylococcus aureus 983 clinical isolate assessed as reduction in bacterial growth incubated for 24 hrs by CLSI broth microdilution method; format: functional
[32] = tested on: Staphylococcus epidermidis; experiment: Bactericidal activity against Staphylococcus epidermidis assessed as reduction in bacterial growth incubated for 24 hrs followed by replating on MH broth and further incubated for 24 hrs by CLSI broth microdilution method; format: functional; details: Staphylococcus epidermidis, read-out: MBC
[33] = tested on: Staphylococcus intermedius; experiment: Antibacterial activity against methicillin- resistant Staphylococcus intermedius 1143 clinical isolate assessed as reduction in bacterial growth incubated for 24 hrs by CLSI broth microdilution method; format: functional
Pseudomonas aeruginosa [34] = experiment: Bactericidal activity against Pseudomonas aeruginosa ATCC 27853 assessed as reduction in bacterial growth incubated for 24 hrs followed by replating on MH broth and further incubated for 24 hrs by CLSI broth microdilution method; format: functional
[35] = Selectivity index, ratio of CC50 for human HSF cells to MIC for Staphylococcus aureus ATCC 29213; format: toxicity; details: HSF cells
[36] = Selectivity index, ratio of CC50 for human HSF cells to MIC for Bacillus subtilis 168; format: toxicity; details: HSF cells
Klebsiella pneumoniae [37] = experiment: Antibacterial activity against Klebsiella pneumoniae ATCC 1813 assessed as reduction in bacterial growth incubated for 24 hrs by CLSI broth microdilution method; format: functional; details: Klebsiella pneumoniae, ATCC 1813, 24 h, read-out: MIC
Escherichia coli [38] = experiment: Antibacterial activity against Escherichia coli ATCC 25922 assessed as reduction in bacterial growth incubated for 24 hrs by CLSI broth microdilution method; format: functional; details: Escherichia coli, ATCC 25922, 24 h, read-out: MIC
[39] = Selectivity index, ratio of CC50 for human HSF cells to MIC for Escherichia coli ATCC 25922; format: toxicity
[40] = Selectivity index, ratio of CC50 for human HSF cells to MIC for Staphylococcus epidermidis; format: toxicity; details: HSF cells
Staphylococcus aureus [41] = experiment: Antibacterial activity against Staphylococcus aureus ATCC 29213 assessed as reduction in bacterial growth incubated for 24 hrs by CLSI broth microdilution method; format: functional; details: Staphylococcus aureus, ATCC 29213, 24 h, read-out: MIC
[42] = Cytotoxicity against human HSF cells assessed as reduction in cell viability incubated for 72 hrs by MTT assay; format: cell-based, HSF (VGS)
[43] = Enterococcus faecalis, ATCC 29212, read-out: MIC
[44] = Staphylococcus epidermidis, read-out: MIC
[45] = Pseudomonas aeruginosa, ATCC 27853, 24 h, read-out: MIC
[46] = Bacillus subtilis, 168, 24 h, read-out: MIC

- MIC (Enterococcus faecalis [1]): 4 mg/L and 8 mg/L
- MIC (Enterococcus faecalis [1]; [43]): 8 mg/L
Structure (SMILES): CC(C)(C)c1cc2c(OCCCNC(=N)N)c(c1)Cc1cc(C(C)(C)C)cc(c1OCCCNC(=N)N)Cc1cc(C(C)(C)C)cc(c1OCCCNC(=N)N)Cc1cc(C(C)(C)C)cc(c1OCCCNC(=N)N)C2.O=C(O)C(F)(F)F.O=C(O)C(F)(F)F.O=C(O)C(F)(F)F.O=C(O)C(F)(F)F

- MIC (Staphylococcus aureus [3]): 8 mg/L
- MIC (Enterococcus faecalis [1]; [43]): 32 mg/L
- MIC (Staphylococcus aureus [5]): 8 mg/L
- MIC (Pseudomonas aeruginosa [6]): 32 mg/L
- MIC (Escherichia coli [9]): 4 mg/L
Structure (SMILES): N=C(N)NCCc1cc2c(O)c(c1)Cc1cc(CCNC(=N)N)cc(c1O)Cc1cc(CCNC(=N)N)cc(c1O)Cc1cc(CCNC(=N)N)cc(c1O)C2.O=C(O)C(F)(F)F.O=C(O)C(F)(F)F.O=C(O)C(F)(F)F.O=C(O)C(F)(F)F
- MBC (Staphylococcus aureus [2]): 256 mg/L
- MBC (Staphylococcus aureus [4]): 256 mg/L
- MBC (Escherichia coli [7]): 256 mg/L
- MBC (Enterococcus faecalis [8]): > 256 mg/L

Structure (SMILES): CCCCCCCCCC[N+](C)(C)CCCNC(=O)COc1c2cc(C(C)(C)C)cc1Sc1cc(C(C)(C)C)cc(c1OCC(=O)NCCC[N+](C)(C)CCCCCCCCCC)Sc1cc(C(C)(C)C)cc(c1OCC(=O)NCCC[N+](C)(C)CCCCCCCCCC)Sc1cc(C(C)(C)C)cc(c1OCC(=O)NCCC[N+](C)(C)CCCCCCCCCC)S2.[Cl-].[Cl-].[Cl-].[Cl-]
- MIC (Staphylococcus aureus [10]): 32 mg/L
- MIC (Klebsiella sp. [11]): > 64 mg/L
- MIC [12]: 32 mg/L
- Ratio [13]: 1 and 3
- MIC (Proteus sp.): > 64 mg/L
- MIC (Acinetobacter [14]): > 64 mg/L
- MBC (Escherichia coli [15]): 64 mg/L
- MIC [16]: 4 mg/L
- MIC [16, 44]: 8 mg/L
- MIC (Pseudomonas aeruginosa [17]; 24 h): >64 mg/L
- MIC (Pseudomonas aeruginosa [17]; [45]): 64 mg/L
- MIC (Pseudomonas): > 64 mg/L
- MIC (Staphylococcus aureus [18]): 4 mg/L
- MBC (Staphylococcus aureus [19]): 8 mg/L
- MBC (Klebsiella pneumoniae [20]): 32 mg/L
- MIC (Klebsiella sp. [21]): > 64 mg/L
- MIC (Bacillus subtilis [22]): 4 mg/L
- MIC (Bacillus subtilis [22]; [46]): 4 mg/L
- MIC [23]: > 64 mg/L
- MIC (Acinetobacter [24]): > 64 mg/L
- Ratio [25]: < 0.5
- selectivity ratio [25]: 0.5
- MBC (Bacillus subtilis [26]): 32 mg/L
- MIC (Staphylococcus aureus [27]): 32 mg/L
- MIC [28]: > 64 mg/L
- MIC [29]: > 64 mg/L
- MIC (Acinetobacter [30]): > 64 mg/L
- MIC (Staphylococcus aureus [31]): 32 mg/L
- MBC [32]: 16 mg/L
- MIC [33]: 2 mg/L
- MBC (Pseudomonas aeruginosa [34]): > 64 mg/L

Structure (SMILES): [H]/N=C(\N/C(=N/[H])NCCCCCCNC(=N)NC(=N)Nc1ccc(Cl)cc1)Nc1ccc(Cl)cc1 [CHLORHEXIDINE]
- selectivity ratio [35]: 2.74
- selectivity ratio [36]: 2.74
- selectivity ratio [13]: 2.74
- MIC [16, 44]: 1 mg/L (≈ 1.98 µM)
- MIC (Pseudomonas aeruginosa [17]; [45]): 4 mg/L (≈ 7.91 µM)
- MIC (Klebsiella pneumoniae [37]): 2 mg/L (≈ 3.96 µM)
- MIC (Escherichia coli [38]): 1 mg/L (≈ 1.98 µM)
- MIC (Bacillus subtilis [22]; [46]): 2 mg/L (≈ 3.96 µM)
- selectivity ratio [25]: 1.37
- selectivity ratio [39]: 5.48
- selectivity ratio [40]: 5.48
- MIC (Staphylococcus aureus [41]): 2 mg/L (≈ 3.96 µM)
- CC50 at 72 h [42]: 5.48 mg/L (≈ 10.8 µM)

Structure (SMILES): CCCCCCCCCCCCCC(=O)NCCC[N+](C)(C)Cc1ccccc1.[Cl-] [MIRAMISTIN]
- selectivity ratio [35]: 0.6
- MIC (Staphylococcus aureus [10]): 16 mg/L
- MIC (Klebsiella sp. [11]): 64 mg/L
- selectivity ratio [36]: 1.2
- MIC [12]: 64 mg/L
- selectivity ratio [13]: 0.15
- MIC (Proteus sp.): > 64 mg/L
- MIC (Acinetobacter [14]): 64 mg/L
- MBC (Escherichia coli [15]): 64 mg/L
- MIC [16, 44]: 4 mg/L
- MIC (Pseudomonas aeruginosa [17]; [45]): 64 mg/L
- MIC (Pseudomonas): > 64 mg/L
- MIC (Staphylococcus aureus [18]): 0.5 mg/L
- MIC (Klebsiella pneumoniae [37]): 64 mg/L
- MBC (Staphylococcus aureus [19]): 32 mg/L
- MBC (Klebsiella pneumoniae [20]): 64 mg/L
- MIC (Klebsiella sp. [21]): > 64 mg/L
- MIC (Escherichia coli [38]): 64 mg/L
- MIC (Bacillus subtilis [22]; [46]): 8 mg/L
- MIC [23]: 64 mg/L
- MIC (Acinetobacter [24]): 64 mg/L
- selectivity ratio [25]: 0.15
- MBC (Bacillus subtilis [26]): 64 mg/L
- selectivity ratio [39]: 0.15
- selectivity ratio [40]: 2.4
- MIC (Staphylococcus aureus [27]): 8 mg/L
- MIC [28]: 32 mg/L
- MIC [29]: 64 mg/L
- MIC (Acinetobacter [30]): > 64 mg/L
- MIC (Staphylococcus aureus [41]): 16 mg/L
- MIC (Staphylococcus aureus [31]): 4 mg/L
- MBC [32]: 32 mg/L
- MIC [33]: 8 mg/L
- CC50 at 72 h [42]: 9.4 mg/L
- MBC (Pseudomonas aeruginosa [34]): 64 mg/L
